Experimental findings from patent EP4810052A2, “HCRHR2 SELECTIVE POLYPEPTIDES” (Gubra A/S, priority 2023, dated 2026) are described below.

The target in one series is T1, hCRHR2 (Homo sapiens, UniProt Q13324).
T1 sequence (Q13324 1-411): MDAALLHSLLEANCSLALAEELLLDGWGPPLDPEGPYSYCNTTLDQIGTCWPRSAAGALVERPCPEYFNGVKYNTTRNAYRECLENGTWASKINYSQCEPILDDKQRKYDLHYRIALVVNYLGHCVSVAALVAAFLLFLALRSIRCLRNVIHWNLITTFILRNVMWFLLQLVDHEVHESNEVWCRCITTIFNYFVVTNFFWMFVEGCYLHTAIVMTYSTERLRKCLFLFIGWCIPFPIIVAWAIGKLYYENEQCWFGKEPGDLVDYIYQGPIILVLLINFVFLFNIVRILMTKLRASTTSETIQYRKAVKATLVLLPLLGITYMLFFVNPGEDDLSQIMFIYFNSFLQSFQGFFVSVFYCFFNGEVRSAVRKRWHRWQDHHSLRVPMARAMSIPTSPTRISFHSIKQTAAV
Description: HTRF cAMP assay, determination of hCRHR2 potency (peptide libraries 5 conc., purified peptides 11 conc.). It counts as cell-based. An outline of the steps:
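EC50 derived by variable-slope sigmoid regression of FRET-based cAMP data; cellular cAMP displaced d2-labelled tracer from cryptate anti-cAMP antibody. Stable human CRHR2 CHO-K1 suspension cells, revived from frozen stocks just before the run.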
Background: Time-resolved FRET reads energy transfer from a long-lived donor to a nearby acceptor.

The target of another series is T2, hCRHR1 (Homo sapiens, UniProt P34998).
T2 sequence (P34998 24-415): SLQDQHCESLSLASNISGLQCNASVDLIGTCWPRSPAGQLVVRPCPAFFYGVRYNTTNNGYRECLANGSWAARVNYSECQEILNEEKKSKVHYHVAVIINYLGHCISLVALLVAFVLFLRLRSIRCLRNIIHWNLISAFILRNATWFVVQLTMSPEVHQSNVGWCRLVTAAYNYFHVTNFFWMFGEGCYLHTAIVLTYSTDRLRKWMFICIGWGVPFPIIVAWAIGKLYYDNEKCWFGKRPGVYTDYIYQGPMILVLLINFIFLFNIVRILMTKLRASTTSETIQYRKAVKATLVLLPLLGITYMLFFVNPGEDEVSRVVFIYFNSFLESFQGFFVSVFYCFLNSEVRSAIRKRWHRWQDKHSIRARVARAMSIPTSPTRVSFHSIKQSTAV
In words: HTRF cAMP assay, determination of hCRHR1 potency (peptide libraries 5 conc., purified peptides 11 conc.). Format: cell-based. The essentials: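 Cellular cAMP was read by time-resolved FRET between d2-labelled cAMP and cryptate anti-cAMP antibody. The cells were freshly thawed suspension CHO-K1 cells stably expressing human CRHR1.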

Series [1] in a line: Thioflavin T fibril formation assay of purified peptides. Format: physicochemical. The following applies: pH 7.5, ThT assay. Here is the method:
Thioflavin T fibril formation assay: Peptides were dissolved as 267 µM in 50 mM phosphate buffer pH 7.5 for 2 h at room temperature on a rocking table. The samples were then divided into three replicates of 80 µl/well and mixed with 2 µl/well Thioflavin T (ThT)to a final concentration of 4 µM ThT in a black 384 well microplate with a clear bottom (Greiner #781096). The plate was inserted in a CLARIOstar Plus microplate reader (BMG Labtech) and fibril formation was measured as an increase in fluorescence emission at 480 nm (excitation at 450 nm) during 96 h at 40°C with cycles of 5 min rest and 5 min linearshaking at700 rpm.
Compounds were dissolved to 200 µM (ca 1.0 mg/ml) in 50 mM phosphate buffer with preparation and ThT assay performed as described in the "General procedure for determination of fibril formation of peptides." above. Furthermore, samples were adjusted to pH values as indicated below. Additional co-formulations of compounds with semaglutide were prepared by dissolving compounds to 200 µM in commercially available semaglutide drug product (Ozempic®); these co-formulations were adjusted to pH 7.4.

The conditions of series [2]: pH 7.5.

Where two headings read alike, the source gives them in different places. Starred links: 1 amine or outer side, 2 acyl side, 3 side chain; linkers in the order of their positions; H or OH if unused. Non-standard residues stand in square brackets, D forms with d. Residues, ends and D or L forms follow the SMILES beside them. Groups on a side chain read outwards from the residue. *: point of attachment. C20 diacid = O=C(O)CCCCCCCCCCCCCCCCCCC(=O)*; γGlu = O=C(O)[C@H](CCC(=O)[*:2])N[*:1]; NMeI = CC[C@H](C)[C@H](NC)C(=O)O; Nle = CCCC[C@H](N)C(=O)O; AEEA = NCCOCCOCC(=O)O; Aib = CC(C)(N)C(=O)O

For the compound `CC[C@H](C)[C@H](N)C(=O)N[C@H](C(=O)N[C@@H](CC(C)C)C(=O)N[C@@H](CO)C(=O)N[C@@H](CC(C)C)C(=O)N[C@@H](CC(=O)O)C(=O)N[C@H](C(=O)N1CCC[C@H]1C(=O)N[C@H](C(=O)NCC(=O)N[C@@H](CC(C)C)C(=O)N[C@@H](CC(C)C)C(=O)N[C@@H](CCC(N)=O)C(=O)N[C@H](C(=O)N[C@@H](CC(C)C)C(=O)N[C@@H](CC(C)C)C(=O)N[C@@H](CCC(=O)O)C(=O)N[C@@H](CCC(N)=O)C(=O)N[C@@H](C)C(=O)N[C@@H](CCCNC(=N)N)C(=O)N[C@@H](C)C(=O)N[C@@H](CCCNC(=N)N)C(=O)N[C@@H](C)C(=O)N[C@@H](C)C(=O)N[C@@H](CCCNC(=N)N)C(=O)N[C@@H](CCC(=O)O)C(=O)N[C@@H](CCC(N)=O)C(=O)N[C@@H](C)C(=O)N[C@@H](CCCCNC(=O)COCCOCCNC(=O)COCCOCCNC(=O)CC[C@H](NC(=O)CC[C@H](NC(=O)CCCCCCCCCCCCCCCCCCC(=O)O)C(=O)O)C(=O)O)C(=O)N[C@H](C(=O)N[C@@H](CC(N)=O)C(=O)N[C@@H](C)C(=O)N[C@@H](CCCNC(=N)N)C(=O)N[C@H](C(=O)N[C@@H](CC(C)C)C(=O)N[C@@H](C)C(=O)N[C@@H](CCCNC(=N)N)C(=O)N[C@H](C(N)=O)C(C)C)[C@@H](C)CC)[C@@H](C)O)[C@@H](C)CC)[C@@H](C)CC)C(C)C)C(C)C` [SEQ ID NO: 2] (H-IVLSLDVPIGLLQILLEQARARAAREQAK([AEEA-AEEA-γGlu-γGlu-C20 diacid])TNARILARV-NH2), the “Selectivity ratio (hCRHR1/ hCRHR2)” value at hCRHR2 (hCRHR1-EC50/hCRHR2-EC50) is recorded as greater than 2778. The EC50 was 1.8 nM at hCRHR2 (purified peptides, CHO-K1 cells stably expressing hCRHR2, cAMP HTRF, read-out: hCRHR2 EC50) and greater than 5000 nM at hCRHR1 (purified peptides, CHO-K1 cells stably expressing hCRHR1, cAMP HTRF, read-out: hCRHR1 EC50). Further, in series [1], the “Fibrillation (pH 7.5)” value was “No”. For the same compound, the “Solubility pH 7.5, target conc. =5 mg/mL (measured mg/mL)” value in series [2] is listed as 0.016 mg/mL.

For the compound `CCCC[C@H](NC(=O)[C@@H](NC(=O)[C@H](CCC(=O)O)NC(=O)C(C)(C)NC(=O)[C@H](CC(N)=O)NC(=O)[C@@H](NC(=O)[C@H](CCCCNC(=O)COCCOCCNC(=O)COCCOCCNC(=O)CC[C@H](NC(=O)CC[C@H](NC(=O)CCCCCCCCCCCCCCCCCCC(=O)O)C(=O)O)C(=O)O)NC(=O)[C@H](C)NC(=O)[C@H](CCC(N)=O)NC(=O)[C@H](CCC(=O)O)NC(=O)[C@H](CCCNC(=N)N)NC(=O)[C@H](C)NC(=O)[C@H](C)NC(=O)[C@H](CCCNC(=N)N)NC(=O)[C@H](C)NC(=O)[C@H](CCCNC(=N)N)NC(=O)[C@H](C)NC(=O)[C@H](CCC(N)=O)NC(=O)[C@H](CCCNC(=N)N)NC(=O)[C@H](CC(C)C)NC(=O)[C@H](CC(C)C)NC(=O)[C@@H](NC(=O)[C@H](CCC(N)=O)NC(=O)[C@H](CC(C)C)NC(=O)[C@H](CC(C)C)NC(=O)CNC(=O)[C@@H](NC(=O)[C@@H]1CCCN1C(=O)[C@@H](NC(=O)[C@H](CC(=O)O)NC(=O)[C@H](CC(C)C)NC(=O)[C@H](CO)NC(=O)[C@H](CC(C)C)NC(=O)[C@@H](NC(=O)[C@@H](NC)[C@@H](C)CC)C(C)C)C(C)C)[C@@H](C)CC)[C@@H](C)CC)[C@@H](C)O)[C@@H](C)CC)C(=O)N[C@@H](C)C(=O)N[C@@H](CCC(=O)O)C(=O)N[C@H](C(N)=O)C(C)C` [compound 198] (H-[NMeI]VLSLDVPIGLLQILLRQARARAAREQAK([AEEA-AEEA-γGlu-γGlu-C20 diacid])TN[Aib]EI[Nle]AEV-NH2), the EC50 was 0.0316 nM at hCRHR2 (Table 4, library peptides having X^38 = Nle, read-out: hCRHR2 pEC50 (converted)) and 63100 nM on hCRHR1 (Table 4, library peptides having X^38 = Nle, read-out: hCRHR1 pEC50 (converted)).

Take `CCCC[C@H](NC(=O)[C@@H](NC(=O)[C@H](CCC(=O)O)NC(=O)[C@H](C)NC(=O)[C@H](CC(N)=O)NC(=O)[C@@H](NC(=O)[C@H](CCCCNC(=O)COCCOCCNC(=O)COCCOCCNC(=O)CC[C@H](NC(=O)CC[C@H](NC(=O)CCCCCCCCCCCCCCCCCCC(=O)O)C(=O)O)C(=O)O)NC(=O)[C@H](C)NC(=O)[C@H](CCC(N)=O)NC(=O)[C@H](CCC(=O)O)NC(=O)[C@H](CCCNC(=N)N)NC(=O)[C@H](C)NC(=O)[C@H](C)NC(=O)[C@H](CCCNC(=N)N)NC(=O)[C@H](C)NC(=O)[C@H](CCCNC(=N)N)NC(=O)[C@H](C)NC(=O)[C@H](CCC(N)=O)NC(=O)[C@H](CCC(=O)O)NC(=O)[C@H](CC(C)C)NC(=O)[C@H](CC(C)C)NC(=O)[C@@H](NC(=O)[C@H](CCC(N)=O)NC(=O)[C@H](CC(C)C)NC(=O)[C@H](CC(C)C)NC(=O)CNC(=O)[C@@H](NC(=O)[C@@H]1CCCN1C(=O)[C@@H](NC(=O)[C@H](CC(=O)O)NC(=O)[C@H](CC(C)C)NC(=O)[C@H](CO)NC(=O)[C@H](CC(C)C)NC(=O)[C@@H](NC(=O)[C@@H](N)[C@@H](C)CC)C(C)C)C(C)C)[C@@H](C)CC)[C@@H](C)CC)[C@@H](C)O)[C@@H](C)CC)C(=O)N[C@@H](C)C(=O)N[C@@H](CCC(=O)O)C(=O)N[C@H](C(N)=O)C(C)C` [SEQ ID NO: 45] (H-IVLSLDVPIGLLQILLEQARARAAREQAK([AEEA-AEEA-γGlu-γGlu-C20 diacid])TNAEI[Nle]AEV-NH2): the EC50 at hCRHR2 (Table 3, matched molecular pairs X^38 L vs Nle, peptide library of Example 4, read-out: hCRHR2 pEC50 (converted)) is 0.251 nM; at hCRHR2 (Table 5, purified peptides, read-out: hCRHR2 EC50), 0.52 nM; on hCRHR1 (Table 3, matched molecular pairs X^38 L vs Nle, peptide library of Example 4, read-out: hCRHR1 pEC50 (converted)), 200 nM. For the same compound, the “Selectivity ratio (hCRHR1/ hCRHR2)” value on hCRHR2 (Table 5) is recorded as 107.

For the compound `CC[C@H](C)[C@H](N)C(=O)N[C@H](C(=O)N[C@@H](CC(C)C)C(=O)N[C@@H](CO)C(=O)N[C@@H](CC(C)C)C(=O)N[C@@H](CC(=O)O)C(=O)N[C@H](C(=O)N1CCC[C@H]1C(=O)N[C@H](C(=O)NCC(=O)N[C@@H](CC(C)C)C(=O)N[C@@H](CC(C)C)C(=O)N[C@@H](CCC(N)=O)C(=O)N[C@H](C(=O)N[C@@H](CC(C)C)C(=O)N[C@@H](CC(C)C)C(=O)N[C@@H](CCC(=O)O)C(=O)N[C@@H](CCC(N)=O)C(=O)N[C@@H](C)C(=O)N[C@@H](CCCNC(=N)N)C(=O)N[C@@H](C)C(=O)N[C@@H](CCCNC(=N)N)C(=O)N[C@@H](CO)C(=O)N[C@@H](CCC(N)=O)C(=O)N[C@@H](CCCNC(=N)N)C(=O)N[C@@H](CCC(=O)O)C(=O)N[C@@H](CCC(=O)O)C(=O)N[C@@H](C)C(=O)N[C@@H](CCCCNC(=O)COCCOCCNC(=O)COCCOCCNC(=O)CC[C@H](NC(=O)CC[C@H](NC(=O)CCCCCCCCCCCCCCCCCCC(=O)O)C(=O)O)C(=O)O)C(=O)N[C@H](C(=O)N[C@@H](CC(N)=O)C(=O)N[C@@H](C)C(=O)N[C@@H](CCC(=O)O)C(=O)N[C@H](C(=O)N[C@@H](CC(C)C)C(=O)N[C@@H](C)C(=O)N[C@@H](CCC(=O)O)C(=O)N[C@H](C(N)=O)C(C)C)[C@@H](C)CC)[C@@H](C)O)[C@@H](C)CC)[C@@H](C)CC)C(C)C)C(C)C` [compound 70] (H-IVLSLDVPIGLLQILLEQARARSQREEAK([AEEA-AEEA-γGlu-γGlu-C20 diacid])TNAEILAEV-NH2), the EC50 is 1.26 nM at hCRHR2 (library peptides, matched molecular pairs L vs Nle in position X^38, read-out: Potency hCRHR2 pEC50 (converted)) and 158000 nM at hCRHR1 (library peptides, matched molecular pairs L vs Nle in position X^38, read-out: Potency hCRHR1 pEC50 (converted)).
